The source of these data is patent publication US11597724B2, “Herbicidally active 3-phenylisoxazoline-5-carboxamides of tetrahydro and dihydrofuran carboxylic acids and esters” (Bayer Aktiengesellschaft, priority 2017, dated 2023).

Holding throughout (type): in vivo
One test concerns Echinochloa crus-galli. Put plainly: Pre-emergence herbicidal activity against ECHCG. The settings on record: dosage 80 g/ha, scored visually after about 3 weeks vs untreated controls (100% = plants have died, 0% = like control plants); for pest or weed control at 80 g/ha: Echinochloa crus-galli, 504 h. An excerpt:
(§1) 1. Pre-Emergence Herbicidal Action and Crop Plant Compatibility Seeds of monocotyledonous and dicotyledonous weed plants and crop plants are placed in plastic or wood fiber pots and covered with soil. The compounds of the invention, formulated in the form of wettable powders (WP) or as emulsion concentrates (EC), are then applied onto the surface of the covering soil as aqueous suspension or emulsion with addition of 0.5% additive at a water application rate of 600 l/ha (converted). After the treatment, the pots are placed in a greenhouse and kept under good growth conditions for the trial plants. After about 3 weeks, the effect of the preparations is scored visually in comparison with untreated controls as percentages. For example, 100% activity=the plants have died, 0% activity=like control plants. ECHCG: Echinochloa crus-galli HORMU: Hordeum murinum

Another test deals with Hordeum murinum. Briefly: Pre-emergence herbicidal activity against HORMU. The settings on record: dosage 80 g/ha; for pest or weed control at 80 g/ha: Hordeum murinum, 504 h.
Excerpt: as §1

Another test concerns Viola tricolor. Put plainly: Pre-emergence herbicidal activity against VIOTR. The following applies: dosage 80 g/ha.
Excerpt: as §1, with “VIOTR: Viola tricolor” for “ECHCG: Echinochloa crus-galli HORMU: Hordeum murinum”

Test [1] can be described thus: Pre-emergence treatment, summary over harmful plants. The following applies: 504 h, application rate of 0.08 kg of active substance or less per hectare, read-out: herbicidal action, pre-emergence treatment (very good activity).
Excerpt: 1. Pre-Emergence Herbicidal Action and Crop Plant Compatibility
as §1, with “Seeds” for “1. Pre-Emergence Herbicidal Action and Crop Plant Compatibility Seeds”, “plants.” for “plants. ECHCG: Echinochloa crus-galli HORMU: Hordeum murinum”
As shown by the results, compounds according to the invention such as, for example, the compounds No. I-21 and other compounds from the tables (for example I-10, I-26, I-09, I-30, I-28, I-29, I-27, I-01, I-06, I-34, I-19, I-11, I-36, I-37, I-38, I-41, I-42, I-43, I-44, I-46, I-49) have, when used for pre-emergence treatment, very good activity (80% to 100% herbicidal action) against harmful plants such as Abutilon theophrasti, Alopecurus myosuroides, Amaranthus retroflexus, Avena fatua, Echinochloa crus-galli, Hordeum murinum, Lolium rigidum, Pharbitis purpurea, Polygonum convolvulus, Setaria viridis, Stellaria media, Veronica persica and Viola tricolor at an application rate of 0.08 kg of active substance or less per hectare.

In another test the test system is Lolium rigidum. Briefly: Pre-emergence herbicidal activity against LOLRI. The settings on record: dosage 80 g/ha; for pest or weed control at 80 g/ha: Lolium rigidum, 504 h.
Excerpt: as §1, with “LOLRI: Lolium rigidum PHBPU: Pharbitis purpurea” for “ECHCG: Echinochloa crus-galli HORMU: Hordeum murinum”

For a further test, the system named is Pharbitis purpurea. Put plainly: Pre-emergence herbicidal activity against PHBPU. The settings on record: dosage 80 g/ha; for pest or weed control at 80 g/ha: Ipomoea purpurea, 504 h.
Excerpt: as §1, with “LOLRI: Lolium rigidum PHBPU: Pharbitis purpurea” for “ECHCG: Echinochloa crus-galli HORMU: Hordeum murinum”

Turning to `C=C[C@]1(C(=O)N[C@H]2CO[C@@H](C(=O)OC(C)(C)C)C2)CC(c2cc(F)cc(F)c2)=NO1` (mixture of isomers) [I-38, tert-butyl cis-4-[[(5S)-3-(3,5-difluorophenyl)-5-vinyl-4H-isoxazole-5-carbonyl]amino]tetrahydrofuran-2-carboxylate], the pest or weed control at 80 g/ha with Echinochloa crus-galli is 100%; with Hordeum murinum it was 90%; in test [1] it was 80 to 100%; in the test on Lolium rigidum, 100%. Besides, the “Pre-emergence herbicidal activity against VIOTR in %” value in the test with Viola tricolor is listed as 100%.

Turning to `C=C[C@]1(C(=O)NC2COCC2C(=O)OC)CC(c2cc(F)cc(F)c2)=NO1` (stereo partly drawn) [I-26, methyl 4-[[(5S)-3-(3,5-difluorophenyl)-5-vinyl-4H-isoxazole-5-carbonyl]amino]tetrahydrofuran-3-carboxylate], the pest or weed control at 80 g/ha in the test on Pharbitis purpurea is 90%; with Echinochloa crus-galli, 90%; in test [1], 80 to 100%.

For `CCOC(=O)[C@H]1C[C@@H](NC(=O)C2(C)CC(c3cccc(F)c3)=NO2)CO1` (mixture of isomers) [I-30, ethyl cis-4-[[(5RS)-3-(3-fluorophenyl)-5-methyl-4H-isoxazole-5-carbonyl]amino]tetrahydrofuran-2-carboxylate], the results for the pest or weed control at 80 g/ha (in the test on Hordeum murinum; in test [1]; with Lolium rigidum) were 90%, 80 to 100% and 100%, respectively.

On to `COC(=O)[C@@]1(OC)C[C@@H](NC(=O)C2(C)CC(c3cccc(F)c3)=NO2)CO1` (stereo partly drawn) [I-47, methyl (2R,4R)-4-[[3-(3-fluorophenyl)-5-methyl-4H-isoxazole-5-carbonyl]amino]-2-methoxytetrahydrofuran-2-carboxylate], for which the pest or weed control at 80 g/ha with Hordeum murinum amounted to 90%.

In the test on Hordeum murinum, `CC(C)(C)OC(=O)[C@H]1C[C@@H](NC(=O)C2(C)CC(c3cccc(F)c3)=NO2)CO1` (mixture of isomers) [I-33, tert-butyl cis-4-[[(5RS)-3-(3-fluorophenyl)-5-methyl-4H-isoxazole-5-carbonyl]amino]tetrahydrofuran-2-carboxylate] returned a pest or weed control at 80 g/ha of 80%.

As to `COC(=O)C1COCC1NC(=O)C1(C)CC(c2cc(F)cc(F)c2)=NO1` (centres unmarked) [I-19, methyl 4-[[3-(3,5-difluorophenyl)-5-methyl-4H-isoxazole-5-carbonyl]amino]tetrahydrofuran-3-carboxylate], in test [1], the pest or weed control at 80 g/ha lay within 80 to 100%.

Regarding `CC1(C(=O)N[C@H]2CO[C@@H](C(=O)OCc3ccccc3)C2)CC(c2cccc(F)c2)=NO1` (mixture of isomers) [I-34, benzyl cis-4-[[(5RS)-3-(3-fluorophenyl)-5-methyl-4H-isoxazole-5-carbonyl]amino]tetrahydrofuran-2-carboxylate], the results for the pest or weed control at 80 g/ha (with Echinochloa crus-galli; in test [1]; in the test with Lolium rigidum) were 80%, 80 to 100% and 100%, respectively.

In turn, `CC(C)OC(=O)[C@H]1C[C@@H](NC(=O)C2(C)CC(c3cccc(F)c3)=NO2)CO1` (mixture of isomers) [I-32, isopropyl cis-4-[[(5RS)-3-(3-fluorophenyl)-5-methyl-4H-isoxazole-5-carbonyl]amino]tetrahydrofuran-2-carboxylate] returned a pest or weed control at 80 g/ha with Lolium rigidum of 100%.

As for `COC(=O)C1COCC1NC(=O)C1(OC)CC(c2cc(F)cc(F)c2)=NO1` (centres unmarked) [I-27, methyl 4-[[3-(3,5-difluorophenyl)-5-methoxy-4H-isoxazole-5-carbonyl]amino]tetrahydrofuran-3-carboxylate], in the test on Viola tricolor, the “Pre-emergence herbicidal activity against VIOTR in %” value is recorded as 90%. For the same compound, in test [1], the pest or weed control at 80 g/ha lay within 80 to 100%.

In the case of `C=C[C@]1(C(=O)N[C@H]2CO[C@@H](C(=O)OC)C2)CC(c2cc(F)cc(F)c2)=NO1` (single isomer, unassigned) [I-12], the results for the pest or weed control at 80 g/ha with Echinochloa crus-galli, with Hordeum murinum and with Lolium rigidum were 90%, 100% and 100%, respectively. Moreover, the “Pre-emergence herbicidal activity against VIOTR in %” value with Viola tricolor is 100%.

With `CCOC(=O)C1CC(NC(=O)C2(C)CC(c3cc(F)cc(F)c3)=NO2)CO1` (mixture of isomers) [I-43], the “Pre-emergence herbicidal activity against ECHCG in %” value in the test on Echinochloa crus-galli stood at 100%. The “Pre-emergence herbicidal activity against HORMU in %” value in the test with Hordeum murinum is on record as 90%. For the same compound, in the test with Viola tricolor, the “Pre-emergence herbicidal activity against VIOTR in %” value is recorded as 90%. Further, in the test on Lolium rigidum, the “Pre-emergence herbicidal activity against LOLRI in %” value came to 100%.

Regarding `COC(=O)C1=C[C@@H](NC(=O)C2(C)CC(c3cccc(F)c3)=NO2)CO1` (stereo partly drawn) [I-46, methyl (3R)-3-[[3-(3-fluorophenyl)-5-methyl-4H-isoxazole-5-carbonyl]amino]-2,3-dihydrofuran-5-carboxylate], the pest or weed control at 80 g/ha is 90% with Echinochloa crus-galli, 100% in the test with Hordeum murinum, 80 to 100% in test [1] and 100% in the test on Lolium rigidum.

As for `COC(=O)C1COCC1NC(=O)[C@@]1(C)CC(c2cc(F)cc(F)c2)=NO1` (stereo partly drawn) [I-28, methyl 4-[[(5R)-3-(3,5-difluorophenyl)-5-methyl-4H-isoxazole-5-carbonyl]amino]tetrahydrofuran-3-carboxylate], the pest or weed control at 80 g/ha in the test on Pharbitis purpurea was 90%; in the test with Echinochloa crus-galli, 90%; in test [1], 80 to 100%.

As to `COC(=O)C1=C[C@H](NC(=O)C2(C)CC(c3cccc(F)c3)=NO2)CO1` (stereo partly drawn) [I-39, methyl (3S)-3-[[3-(3-fluorophenyl)-5-methyl-4H-isoxazole-5-carbonyl]amino]-2,3-dihydrofuran-5-carboxylate], the pest or weed control at 80 g/ha in the test on Hordeum murinum and in the test on Lolium rigidum was 100% throughout.

As to `COC(=O)[C@H]1C[C@@H](NC(=O)C2(C)CC(c3cc(F)cc(F)c3)=NO2)CO1` (relative stereo) [I-01, methyl cis-4-[[3-(3,5-difluorophenyl)-5-methyl-4H-isoxazole-5-carbonyl]amino]tetrahydrofuran-2-carboxylate], the figures for the pest or weed control at 80 g/ha (in the test with Echinochloa crus-galli; in test [1]) were 80% and 80 to 100%, respectively.

For the compound `CC1(C(=O)NC2COC(C(=O)O)C2)CC(c2cc(F)cc(F)c2)=NO1` (mixture of isomers) [I-41], the “Pre-emergence herbicidal activity against PHBPU in %” value with Pharbitis purpurea is on record as 90%. For the same compound, the “Pre-emergence herbicidal activity against ECHCG in %” value with Echinochloa crus-galli came out at 100%. Also, in the test on Hordeum murinum, the “Pre-emergence herbicidal activity against HORMU in %” value is given as 100%. Further, the “Pre-emergence herbicidal activity against LOLRI in %” value in the test on Lolium rigidum is 100%.

Regarding `COC(=O)C1COCC1NC(=O)C1(OC)CC(c2cc(Cl)cc(Cl)c2)=NO1` (centres unmarked) [I-29, methyl 4-[[3-(3,5-dichlorophenyl)-5-methoxy-4H-isoxazole-5-carbonyl]amino]tetrahydrofuran-3-carboxylate], the pest or weed control at 80 g/ha in test [1] lay within 80 to 100%.

As to `C=CC1(C(=O)N[C@H]2CO[C@@H](C(=O)O)C2)CC(c2cc(F)cc(F)c2)=NO1` (relative stereo) [I-21, cis-4-[[3-(3,5-difluorophenyl)-5-vinyl-4H-isoxazole-5-carbonyl]amino]tetrahydrofuran-2-carboxylic acid], the pest or weed control at 80 g/ha in the test with Pharbitis purpurea is 80%; in the test with Echinochloa crus-galli, 100%; in test [1], 80 to 100%.
